Laboratory results reported in the supplement of paper PMC6045584.

Columns and labels:
Assay in all cases: area under dose-response curve of surviving fraction (unscaled, Aref=0) (surviving fraction x log10(nM)); higher = more resistant
Details in all cases: exposure time: 5 days; dose range 0.5-1000 nM
[1] = compound: C[C@@H](Oc1cc(-c2cnn(C3CCNCC3)c2)cnc1N)c1c(Cl)ccc(F)c1Cl
Procedure, shortened: (§1)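 Surviving fractions were fitted by 3-parameter logistic regression in the drc R package to give dose-response survival curves. They came from tumour cell lines treated for five days with eight inhibitor concentrations from 0.5 to 1000 nM and read by CellTiter-Glo luminescence against DMSO-only wells. The area under the curve is the unscaled activity area. It was calculated over log10 dose with Aref = 0.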

[2] = compound: COc1cc2ncnc(Nc3ccc(F)c(Cl)c3)c2cc1NC(=O)/C=C/CN1CCCCC1
Procedure, shortened: as §1

SOTRASTAURIN/AEB071 = compound: CN1CCN(c2nc(C3=C(c4c[nH]c5ccccc45)C(=O)NC3=O)c3ccccc3n2)CC1 [SOTRASTAURIN/AEB071]
Procedure, shortened: as §1

ABIRATERONE = compound: C[C@]12CC[C@H](O)CC1=CC[C@@H]1[C@@H]2CC[C@]2(C)C(c3cccnc3)=CC[C@@H]12 [ABIRATERONE]
Procedure, shortened: as §1

[3] = compound: CNCc1ccc(-c2[nH]c3cc(F)cc4c3c2CCNC4=O)cc1
Procedure, shortened: as §1

DASATINIB = compound: Cc1nc(Nc2ncc(C(=O)Nc3c(C)cccc3Cl)s2)cc(N2CCN(CCO)CC2)n1 [DASATINIB]
Procedure, shortened: as §1

OLAPARIB = compound: O=C(c1cc(Cc2n[nH]c(=O)c3ccccc23)ccc1F)N1CCN(C(=O)C2CC2)CC1 [OLAPARIB]
Procedure, shortened: as §1

TEMOZOLOMIDE = compound: Cn1nnc2c(C(N)=O)ncn2c1=O [TEMOZOLOMIDE]
Procedure, shortened: as §1

MLN-4924 = compound: NS(=O)(=O)OC[C@@H]1C[C@@H](n2ccc3c(N[C@H]4CCc5ccccc54)ncnc32)C[C@@H]1O [MLN-4924]
Procedure, shortened: as §1

[4] = compound: CCn1c(C(=O)N(C2CC2)C2CC2)cc2c3c(ncn3C)c(Nc3cc(C)n(C)n3)nc21
Procedure, shortened: as §1

SORAFENIB = compound: CNC(=O)c1cc(Oc2ccc(NC(=O)Nc3ccc(Cl)c(C(F)(F)F)c3)cc2)ccn1 [SORAFENIB]
Procedure, shortened: as §1

XAV-939 = compound: Oc1nc(-c2ccc(C(F)(F)F)cc2)nc2c1CSCC2 [XAV-939]
Procedure, shortened: as §1

FORETINIB = compound: COc1cc2c(Oc3ccc(NC(=O)C4(C(=O)Nc5ccc(F)cc5)CC4)cc3F)ccnc2cc1OCCCN1CCOCC1 [FORETINIB]
Procedure, shortened: as §1

| Test System | area under dose-response curve [1] | area under dose-response curve [2] | area under dose-response curve (SOTRASTAURIN/AEB071) | area under dose-response curve (ABIRATERONE) | area under dose-response curve [3] | area under dose-response curve (DASATINIB) | area under dose-response curve (OLAPARIB) | area under dose-response curve (TEMOZOLOMIDE) | area under dose-response curve (MLN-4924) | area under dose-response curve [4] | area under dose-response curve (SORAFENIB) | area under dose-response curve (XAV-939) | area under dose-response curve (FORETINIB) |
| --- | --- | --- | --- | --- | --- | --- | --- | --- | --- | --- | --- | --- | --- |
| SCC47 HEADNECK | 3.1 | 2.3 | 3.57 | 3.98 | 3.48 | 2.21 | 3.46 | 3.61 | 2.46 | 3.18 | 3.24 | 3.53 | – |
| MG63 BONE | 2.86 | 3.25 | 3.44 | – | 3.36 | 1.88 | 3.26 | 3.4 | 2.01 | 3.25 | 3.52 | 3.05 | 2.87 |
| CME SYNOVIAL | 3.05 | 4.38 | 4.01 | 4.4 | 2.5 | 2.06 | 2.56 | 4.38 | 2.38 | 4.04 | 4.2 | 4.09 | – |
| 143B BONE | 3.2 | 3.27 | – | 3.51 | – | – | 3.36 | – | – | 3.44 | 3.46 | – | – |
| SUM44 BREAST | 3.1 | 3.24 | – | 3.4 | 3.09 | 3.11 | 3.02 | 4.14 | – | 3.39 | 3.43 | 3.52 | 3.91 |
| SIHA CERVIX | 3.14 | – | – | 3.9 | 3.29 | 2.35 | – | 3.34 | 2.59 | 3.23 | 3.73 | 3.55 | 3.11 |
| HUO3N1 BONE | 3.14 | 3.17 | 3.24 | 3.47 | 3.19 | 1.45 | 3.21 | 3.36 | 3.13 | – | 3.13 | – | 2.9 |
| PCI30 HEADNECK | 3.12 | 1.71 | 3.42 | 3.58 | 3.14 | 2.63 | 3.15 | 3.28 | 2.6 | 3.14 | – | – | 3.16 |
| SJSA1 BONE | 3.21 | 3.54 | – | 3.63 | 5.61 | 3.23 | – | 3.28 | – | 3.42 | 3.31 | 3.64 | 5.45 |
| SCC003 HEADNECK | 3.05 | 2.29 | 3.42 | 3.79 | 3.45 | 2.38 | 3.28 | 3.57 | 3.02 | – | 3.6 | – | 3.21 |
| MDAMB134 BREAST | 2.51 | – | 2.77 | 3.48 | 2.86 | 2.13 | 3.02 | 3.51 | 2.2 | 3.44 | 3.71 | 3.4 | – |
| NY BONE | 2.97 | 3.15 | 3.48 | 3.56 | – | 2 | 3.27 | 3.45 | 2.47 | 3.17 | 3.41 | 3.27 | 2.96 |
| NCIH441 LUNG | 3.16 | 3.01 | 3.4 | 3.41 | 3.19 | 2.55 | 3.38 | 3.69 | 2.76 | 3.28 | – | 3.35 | 3.13 |
| MDAMB453 BREAST | 3.17 | 3.06 | 3.19 | 3.51 | 3.18 | 3.37 | 3.22 | 3.62 | 2.43 | 3.37 | 3.59 | 3.47 | – |
| VP229 BREAST | 3.2 | 1.74 | – | 3.53 | 3.13 | 1.98 | – | 3.86 | 2.74 | 3.59 | 3.66 | 4.36 | – |
| ZR751 BREAST | 2.77 | 2.6 | 3.67 | – | 3.07 | 2.99 | 3.57 | 3.24 | – | 2.89 | 3.69 | 2.68 | – |
| HCC202 BREAST | 4.02 | 1.81 | – | 3.88 | – | – | 2.74 | – | – | 4.17 | – | – | – |
| SG28 HEADNECK | – | 1.87 | – | 3.46 | – | – | – | – | – | 3.25 | 4.1 | 3.21 | – |
| SG31 HEADNECK | 2.66 | 2.06 | – | 3.4 | 3.16 | 1.99 | 3.18 | 3.5 | 2.42 | – | 3.79 | 3.04 | – |
| SAOS2 BONE | 2.88 | 3.15 | 3.08 | 3.89 | 2.96 | 1.69 | 2.98 | 3.9 | 1.97 | 3.41 | – | 3.94 | 3.04 |
| SCC36 HEADNECK | 2.51 | 1.81 | 3.02 | 3.63 | 2.8 | 1.53 | 2.84 | 3.63 | 2.11 | 3.52 | 3.74 | – | 3.13 |
| HCC1954 BREAST | 1.37 | 1.98 | 2.92 | – | 2.54 | 0.867 | 3.08 | 3.75 | 2.34 | 2.83 | 3.17 | 3.2 | – |
| SG32 HEADNECK | 2.92 | 2.87 | – | – | 2.77 | 1.29 | – | 4.29 | 2.59 | 3.55 | 4.91 | 3.64 | 2.95 |
| BT20 BREAST | 2.71 | 3.27 | 3.14 | 3.73 | 3.01 | 2.46 | 2.92 | 3.53 | – | 3.56 | – | 3.66 | 2.97 |
| SKBR3 BREAST | 2.88 | 1.36 | 3.01 | 3.53 | 2.69 | 2.96 | 3.09 | 3.54 | 2.05 | 3.41 | 3.35 | – | – |
| RDES SOFT TISSUE | 2.6 | – | 3.42 | 4.04 | 3.42 | 2.92 | 3.41 | 3.9 | 2.44 | 4.17 | 3.76 | 4 | 2.73 |
